In ChEMBL document CHEMBL2151024, “Synthesis and Biological Evaluation of a Biotinylated Paclitaxel With an Extra-Long Chain Spacer Arm” (ACS Med Chem Lett, 2012):
Calls of active or inactive are those of the source. No cut-off for these calls is given here.

What was measured:
Tubulin = Tubulin (Sus scrofa, UniProt P02554+P02550); assay: Induction of porcine brain tubulin polymerization after 20 mins by Bradford assay
[1] = Stabilization of microtubule by fluorescence microscopy
[2] = Stabilization of microtubule using Cy3-streptavidin-tagged compound by fluorescence microscopy

Row | EC50 (Tubulin) [µM] | Activity [1] | Activity [2] | SMILES
1 | 0.52 | Active | – | CC(=O)O[C@H]1C(=O)[C@@]2(C)[C@H]([C@H](OC(=O)c3ccccc3)[C@]3(O)C[C@H](OC(=O)[C@H](O)[C@@H](NC(=O)c4ccccc4)c4ccccc4)C(C)=C1C3(C)C)[C@]1(OC(C)=O)CO[C@@H]1C[C@@H]2O [PACLITAXEL]
2 | 0.68 | Active | Active | CC(=O)O[C@H]1C(=O)[C@]2(C)[C@@H](OC(=O)CCNC(=O)CCCCCNC(=O)CCCCCNC(=O)CCCC[C@@H]3SC[C@@H]4NC(=O)N[C@@H]43)C[C@H]3OC[C@@]3(OC(C)=O)[C@H]2[C@H](OC(=O)c2ccccc2)[C@]2(O)C[C@H](OC(=O)[C@H](O)[C@@H](NC(=O)c3ccccc3)c3ccccc3)C(C)=C1C2(C)C
